Experimental data from ChEMBL document CHEMBL5465560, “Selectivity Literature for EUbOPEN Chemogenomic Library” (2024).
pIC50: −log10 of the molar value.

Columns and labels:
[1] = target: Serine/threonine-protein kinase haspin (Homo sapiens, UniProt Q8TF76); assay: Selectivity interaction (Enzymatic assay) EUB0001550a GSG2
[2] = target: T1, Mitogen-activated protein kinase kinase kinase 7 (Homo sapiens) (UniProt O43318); assay: Selectivity interaction (KinomeScan (DiscoverX)) EUB0000655a MAP3K7; settings: at 10 µM
T1 sequence (whole entry): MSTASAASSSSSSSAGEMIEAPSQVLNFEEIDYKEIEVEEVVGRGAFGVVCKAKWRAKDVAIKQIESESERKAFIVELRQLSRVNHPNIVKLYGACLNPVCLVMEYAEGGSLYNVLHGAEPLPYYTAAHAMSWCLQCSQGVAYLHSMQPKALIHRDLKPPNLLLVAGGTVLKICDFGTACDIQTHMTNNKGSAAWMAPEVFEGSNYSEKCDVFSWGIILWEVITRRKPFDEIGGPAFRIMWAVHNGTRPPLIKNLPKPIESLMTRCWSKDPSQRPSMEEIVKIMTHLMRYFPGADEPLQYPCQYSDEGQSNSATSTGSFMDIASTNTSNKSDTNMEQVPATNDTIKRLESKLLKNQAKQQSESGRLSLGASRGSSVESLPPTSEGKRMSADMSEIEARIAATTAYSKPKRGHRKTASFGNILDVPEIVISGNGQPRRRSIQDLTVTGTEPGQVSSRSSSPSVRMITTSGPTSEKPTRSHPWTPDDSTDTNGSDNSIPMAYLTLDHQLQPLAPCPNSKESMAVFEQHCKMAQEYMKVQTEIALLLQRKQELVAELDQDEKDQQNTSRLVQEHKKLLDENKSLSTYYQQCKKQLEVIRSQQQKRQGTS

[3] = target: RAC-beta serine/threonine-protein kinase (Homo sapiens) (UniProt P31751); assay: Selectivity interaction (Kinase panel (KiNativ target engagement assay in Jurkat cells)) EUB0001635a AKT2; assay type: cell-based; settings: at 1 µM
Sequence of RAC-beta serine/threonine-protein kinase (Homo sapiens) (P31751 whole entry): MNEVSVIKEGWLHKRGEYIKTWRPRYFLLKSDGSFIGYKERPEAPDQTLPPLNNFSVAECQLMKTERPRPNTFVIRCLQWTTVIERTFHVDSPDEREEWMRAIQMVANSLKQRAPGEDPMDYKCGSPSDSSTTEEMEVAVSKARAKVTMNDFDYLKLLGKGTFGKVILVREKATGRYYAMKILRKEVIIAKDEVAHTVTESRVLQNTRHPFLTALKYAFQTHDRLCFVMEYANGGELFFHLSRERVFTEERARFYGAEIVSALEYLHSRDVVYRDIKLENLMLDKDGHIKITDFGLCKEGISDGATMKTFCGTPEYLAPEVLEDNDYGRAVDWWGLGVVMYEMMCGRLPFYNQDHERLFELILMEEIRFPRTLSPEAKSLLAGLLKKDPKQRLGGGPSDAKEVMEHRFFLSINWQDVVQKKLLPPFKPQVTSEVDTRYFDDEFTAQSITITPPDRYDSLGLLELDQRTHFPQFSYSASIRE

[4] = target: T2, Mitogen-activated protein kinase kinase kinase 2 (Homo sapiens) (UniProt Q9Y2U5); assay: Selectivity interaction (KinomeScan (DiscoverX)) EUB0000695a MAP3K2; settings: at 100 nM
T2 sequence (whole entry): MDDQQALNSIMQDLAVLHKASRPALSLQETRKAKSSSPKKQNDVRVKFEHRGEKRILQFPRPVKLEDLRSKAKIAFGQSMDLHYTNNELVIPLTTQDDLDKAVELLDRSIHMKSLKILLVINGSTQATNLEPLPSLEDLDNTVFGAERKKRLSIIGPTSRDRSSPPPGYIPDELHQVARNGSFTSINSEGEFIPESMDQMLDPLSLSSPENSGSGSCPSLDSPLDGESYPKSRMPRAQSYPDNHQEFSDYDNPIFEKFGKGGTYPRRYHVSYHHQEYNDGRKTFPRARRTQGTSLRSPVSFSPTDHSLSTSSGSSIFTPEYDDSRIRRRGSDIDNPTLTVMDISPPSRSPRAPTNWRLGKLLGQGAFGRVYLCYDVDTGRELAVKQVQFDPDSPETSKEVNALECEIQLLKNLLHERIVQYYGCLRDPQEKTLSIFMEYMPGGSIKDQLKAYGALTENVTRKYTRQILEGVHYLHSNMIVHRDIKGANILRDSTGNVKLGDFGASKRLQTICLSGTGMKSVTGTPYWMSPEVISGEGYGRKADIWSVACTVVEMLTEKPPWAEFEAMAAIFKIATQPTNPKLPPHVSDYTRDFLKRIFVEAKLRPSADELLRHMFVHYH

[5] = target: Insulin-like growth factor 1 receptor (Homo sapiens, UniProt P08069); assay: Selectivity interaction (KinomeScan (DiscoverX)) EUB0000595a IGF1R; settings: at 10 µM
Sequence of Insulin-like growth factor 1 receptor (P08069 31-736 limits assumed): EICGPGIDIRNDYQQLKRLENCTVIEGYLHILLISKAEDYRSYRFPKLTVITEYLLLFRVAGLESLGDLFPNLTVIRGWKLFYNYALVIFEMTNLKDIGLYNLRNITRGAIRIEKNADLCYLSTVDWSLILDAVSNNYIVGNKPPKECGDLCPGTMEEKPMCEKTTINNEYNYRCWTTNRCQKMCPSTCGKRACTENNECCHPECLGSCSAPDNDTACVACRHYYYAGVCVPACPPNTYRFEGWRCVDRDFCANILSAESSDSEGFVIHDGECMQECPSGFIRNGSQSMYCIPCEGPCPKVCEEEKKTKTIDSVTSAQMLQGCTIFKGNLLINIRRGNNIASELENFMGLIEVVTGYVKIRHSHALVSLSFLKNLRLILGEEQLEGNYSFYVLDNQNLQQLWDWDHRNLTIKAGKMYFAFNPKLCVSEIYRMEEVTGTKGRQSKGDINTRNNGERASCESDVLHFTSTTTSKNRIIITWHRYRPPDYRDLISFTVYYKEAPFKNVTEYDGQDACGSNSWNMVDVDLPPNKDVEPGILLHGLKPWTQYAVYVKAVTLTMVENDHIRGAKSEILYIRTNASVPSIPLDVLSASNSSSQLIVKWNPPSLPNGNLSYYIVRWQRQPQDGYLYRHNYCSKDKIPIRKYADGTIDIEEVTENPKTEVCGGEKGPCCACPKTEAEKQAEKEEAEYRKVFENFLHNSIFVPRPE
Sequence of Insulin-like growth factor 1 receptor (P08069 741-1367 limits assumed): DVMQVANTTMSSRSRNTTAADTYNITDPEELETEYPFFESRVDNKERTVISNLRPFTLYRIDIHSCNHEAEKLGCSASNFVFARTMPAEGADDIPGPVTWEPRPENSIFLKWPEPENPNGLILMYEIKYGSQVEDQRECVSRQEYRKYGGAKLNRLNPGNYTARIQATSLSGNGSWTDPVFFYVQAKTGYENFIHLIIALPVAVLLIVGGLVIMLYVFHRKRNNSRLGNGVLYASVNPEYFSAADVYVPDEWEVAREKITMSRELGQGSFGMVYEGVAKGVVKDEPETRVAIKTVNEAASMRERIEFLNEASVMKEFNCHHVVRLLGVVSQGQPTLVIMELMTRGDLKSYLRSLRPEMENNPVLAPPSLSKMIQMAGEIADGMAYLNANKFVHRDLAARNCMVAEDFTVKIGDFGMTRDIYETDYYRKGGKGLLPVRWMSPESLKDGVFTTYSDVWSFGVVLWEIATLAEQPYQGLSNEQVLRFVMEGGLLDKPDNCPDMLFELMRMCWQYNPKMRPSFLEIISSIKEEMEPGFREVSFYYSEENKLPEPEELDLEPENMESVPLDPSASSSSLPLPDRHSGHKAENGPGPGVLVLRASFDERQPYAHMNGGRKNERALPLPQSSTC

[6] = target: Proto-oncogene tyrosine-protein kinase ROS (Homo sapiens) (UniProt P08922); assay: Selectivity interaction (KinomeScan (DiscoverX)) EUB0000595a ROS1; settings: at 10 µM
[7] = target: T3, TGF-beta receptor type-1 (Homo sapiens) (UniProt P36897); assay: Selectivity interaction (Ambit KINOMEscan and KiNATiv profiling in Jurkat cells) EUB0000090b TGFBR1; assay type: cell-based; settings: at 1 µM
T3 sequence (whole entry): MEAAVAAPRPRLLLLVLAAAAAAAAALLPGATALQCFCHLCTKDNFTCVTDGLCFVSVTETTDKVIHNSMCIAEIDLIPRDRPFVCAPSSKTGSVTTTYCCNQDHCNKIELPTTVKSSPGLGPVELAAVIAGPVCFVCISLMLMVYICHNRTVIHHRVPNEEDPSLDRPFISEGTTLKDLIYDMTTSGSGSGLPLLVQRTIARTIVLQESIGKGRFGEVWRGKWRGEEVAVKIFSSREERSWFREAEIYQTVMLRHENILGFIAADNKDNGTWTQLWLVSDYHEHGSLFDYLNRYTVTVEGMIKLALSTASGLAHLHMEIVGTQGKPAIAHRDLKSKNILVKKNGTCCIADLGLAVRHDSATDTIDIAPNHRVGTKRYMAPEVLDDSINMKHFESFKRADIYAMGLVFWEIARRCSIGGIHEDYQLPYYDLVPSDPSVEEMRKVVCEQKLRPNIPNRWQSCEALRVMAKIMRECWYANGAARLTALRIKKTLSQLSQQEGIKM

[8] = target: 5'-AMP-activated protein kinase catalytic subunit alpha-2 (Homo sapiens) (UniProt P54646); assay: Selectivity interaction (ActivX KiNativ screen (ex vivo kinase selectivity in human PBMCs)) EUB0001619a PRKAA2; assay type: cell-based; settings: PBMC, at 1 µM
Sequence of 5'-AMP-activated protein kinase catalytic subunit alpha-2 (Homo sapiens) (P54646 whole entry, looked up): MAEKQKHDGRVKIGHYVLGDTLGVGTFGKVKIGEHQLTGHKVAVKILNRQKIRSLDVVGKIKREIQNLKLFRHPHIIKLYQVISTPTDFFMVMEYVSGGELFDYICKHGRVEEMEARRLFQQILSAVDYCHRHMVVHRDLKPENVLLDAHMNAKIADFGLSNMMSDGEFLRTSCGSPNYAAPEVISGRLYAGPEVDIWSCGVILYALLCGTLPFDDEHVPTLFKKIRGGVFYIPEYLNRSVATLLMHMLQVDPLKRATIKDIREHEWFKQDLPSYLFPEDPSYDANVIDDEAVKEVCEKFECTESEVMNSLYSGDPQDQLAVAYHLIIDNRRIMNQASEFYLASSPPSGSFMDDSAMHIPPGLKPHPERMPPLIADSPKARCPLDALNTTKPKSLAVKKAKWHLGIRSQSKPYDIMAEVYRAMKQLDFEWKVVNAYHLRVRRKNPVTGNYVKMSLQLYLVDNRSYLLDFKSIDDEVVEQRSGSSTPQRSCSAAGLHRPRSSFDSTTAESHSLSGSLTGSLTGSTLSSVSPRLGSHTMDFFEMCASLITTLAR

[9] = target: Myosin light chain kinase, smooth muscle (Homo sapiens, UniProt Q15746); assay: Selectivity interaction (ActivX KiNativ screen (ex vivo kinase selectivity in human PBMCs)) EUB0001619a MYLK; assay type: cell-based; settings: PBMC, at 1 µM
Sequence of Myosin light chain kinase, smooth muscle (Q15746 whole entry): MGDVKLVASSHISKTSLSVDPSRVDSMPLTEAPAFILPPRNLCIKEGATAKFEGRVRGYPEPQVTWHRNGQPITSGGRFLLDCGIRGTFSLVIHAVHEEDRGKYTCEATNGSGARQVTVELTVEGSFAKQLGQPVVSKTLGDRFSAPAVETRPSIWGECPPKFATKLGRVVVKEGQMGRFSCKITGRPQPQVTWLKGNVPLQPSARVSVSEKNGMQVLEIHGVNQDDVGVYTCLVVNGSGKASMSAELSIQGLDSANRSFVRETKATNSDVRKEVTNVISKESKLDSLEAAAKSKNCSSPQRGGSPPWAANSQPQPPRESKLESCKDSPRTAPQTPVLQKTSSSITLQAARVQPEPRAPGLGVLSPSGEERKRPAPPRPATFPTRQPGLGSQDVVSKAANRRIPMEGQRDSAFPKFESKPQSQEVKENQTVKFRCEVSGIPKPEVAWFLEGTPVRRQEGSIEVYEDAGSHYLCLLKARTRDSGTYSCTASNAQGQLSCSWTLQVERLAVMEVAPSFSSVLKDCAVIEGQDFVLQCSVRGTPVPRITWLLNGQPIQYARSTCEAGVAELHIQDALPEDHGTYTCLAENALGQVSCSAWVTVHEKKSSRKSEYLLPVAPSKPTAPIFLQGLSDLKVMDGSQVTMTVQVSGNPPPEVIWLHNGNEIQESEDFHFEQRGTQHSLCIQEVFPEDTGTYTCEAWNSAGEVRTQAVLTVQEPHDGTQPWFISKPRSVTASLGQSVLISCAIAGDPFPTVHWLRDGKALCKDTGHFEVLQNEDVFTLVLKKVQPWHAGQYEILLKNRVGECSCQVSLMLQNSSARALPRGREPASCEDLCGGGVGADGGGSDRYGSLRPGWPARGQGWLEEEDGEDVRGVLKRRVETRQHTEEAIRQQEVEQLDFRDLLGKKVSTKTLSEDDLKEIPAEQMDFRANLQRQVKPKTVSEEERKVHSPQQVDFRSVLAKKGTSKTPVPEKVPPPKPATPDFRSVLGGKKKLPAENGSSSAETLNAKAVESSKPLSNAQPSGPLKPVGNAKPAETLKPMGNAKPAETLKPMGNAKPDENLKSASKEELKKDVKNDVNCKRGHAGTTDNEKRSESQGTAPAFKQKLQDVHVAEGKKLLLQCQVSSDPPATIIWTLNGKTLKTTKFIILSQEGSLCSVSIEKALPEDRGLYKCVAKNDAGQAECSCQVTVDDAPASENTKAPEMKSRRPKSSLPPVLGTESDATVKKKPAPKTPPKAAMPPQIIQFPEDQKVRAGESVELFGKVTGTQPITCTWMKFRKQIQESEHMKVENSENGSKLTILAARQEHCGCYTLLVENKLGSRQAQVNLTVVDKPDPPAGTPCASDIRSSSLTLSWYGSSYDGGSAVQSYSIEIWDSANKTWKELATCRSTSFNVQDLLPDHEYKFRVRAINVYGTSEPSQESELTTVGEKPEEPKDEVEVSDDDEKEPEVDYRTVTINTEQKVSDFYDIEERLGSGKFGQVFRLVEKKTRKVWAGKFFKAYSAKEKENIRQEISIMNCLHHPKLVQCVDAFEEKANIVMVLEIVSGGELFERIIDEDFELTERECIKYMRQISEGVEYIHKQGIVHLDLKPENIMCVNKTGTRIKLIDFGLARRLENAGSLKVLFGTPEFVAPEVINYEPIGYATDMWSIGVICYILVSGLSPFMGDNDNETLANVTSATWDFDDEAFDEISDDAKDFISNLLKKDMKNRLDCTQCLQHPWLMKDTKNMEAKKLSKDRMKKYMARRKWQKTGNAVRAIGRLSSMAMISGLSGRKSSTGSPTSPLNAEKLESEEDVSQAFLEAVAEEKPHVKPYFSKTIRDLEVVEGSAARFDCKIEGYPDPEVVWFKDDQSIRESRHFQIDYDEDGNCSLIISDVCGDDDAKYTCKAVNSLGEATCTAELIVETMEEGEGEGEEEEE

Sequence of Serine/threonine-protein kinase haspin (Q8TF76 whole entry): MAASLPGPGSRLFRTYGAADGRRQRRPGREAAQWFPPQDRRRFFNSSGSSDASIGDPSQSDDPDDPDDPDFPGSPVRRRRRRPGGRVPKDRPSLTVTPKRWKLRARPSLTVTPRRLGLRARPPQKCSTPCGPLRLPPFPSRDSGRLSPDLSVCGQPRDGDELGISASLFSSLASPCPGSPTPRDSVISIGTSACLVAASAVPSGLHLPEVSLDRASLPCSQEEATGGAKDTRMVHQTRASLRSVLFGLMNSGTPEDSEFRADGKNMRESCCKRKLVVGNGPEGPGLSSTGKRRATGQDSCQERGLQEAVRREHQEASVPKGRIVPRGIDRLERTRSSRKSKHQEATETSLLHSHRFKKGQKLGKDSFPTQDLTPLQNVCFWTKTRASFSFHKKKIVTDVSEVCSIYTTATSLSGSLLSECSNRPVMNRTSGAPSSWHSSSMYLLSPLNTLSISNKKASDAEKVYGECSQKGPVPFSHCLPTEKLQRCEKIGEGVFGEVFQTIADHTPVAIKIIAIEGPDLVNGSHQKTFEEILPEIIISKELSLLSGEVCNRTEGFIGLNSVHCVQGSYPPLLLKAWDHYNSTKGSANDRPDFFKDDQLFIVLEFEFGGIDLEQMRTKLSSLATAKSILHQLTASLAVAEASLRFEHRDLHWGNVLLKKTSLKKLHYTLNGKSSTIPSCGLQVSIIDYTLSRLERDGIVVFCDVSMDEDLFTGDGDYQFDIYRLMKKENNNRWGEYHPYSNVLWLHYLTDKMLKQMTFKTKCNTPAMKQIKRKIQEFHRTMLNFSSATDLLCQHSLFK

Q: With `CN(C)CC#Cc1ccc2[nH]c3c(c2c1)-c1nc(N)ncc1CCC3` as the molecule, how does the pIC50 [1] read?
A: 5.85

Q: Which % of control [2] does the source give for `CN(C)CCOc1ccc(-c2nc(-c3ccncc3)c(-c3ccc4c(c3)CC/C4=N\O)[nH]2)cc1` here?
A: 89%

Q: With `C=CC(=O)Nc1ccc(C(=O)Nc2[nH]nc3c2CN(C(=O)N[C@H](CN(C)C)c2ccccc2)C3(C)C)cc1` as the molecule, how does the % of engagement [3] read?
A: -11.1%

Q: Which % of control [4] does the source give for `Cc1cc(F)c(C(=O)Nc2cccc(-c3nncn3C(C)C)n2)cc1-n1cnc(C2CC2)c1` here?
A: 100%

Q: How did the % of control [5] turn out when `COCC(=O)NC/C=C/c1ccc2ncnc(Nc3ccc(Oc4ccc(C)nc4)c(C)c3)c2c1` [CP-724714] was run?
A: 83%

Q: What about the % of control [6] of the same molecule?
A: 100%

Q: `CN(C)C/C=C/C(=O)Nc1ccc(C(=O)N2CCCC(Nc3ncc(Cl)c(-c4c[nH]c5ccccc45)n3)C2)cc1` (centres undefined) was tested. Which % of control [7] did it give?
A: 87%

Q: For `N#Cc1cccc(-c2c[nH]c3ncnc(N4CCOCC4)c23)c1`, which % of inhibition [8] is on record?
A: 27%

Q: And the % of inhibition [9]?
A: 16%
